The source of these data is ChEMBL document CHEMBL1124537, “The importance of the orientation of the C9 substituent to cannabinoid activity” (J Med Chem, 1989).

Activity calls are given as the source filed them. The calls are words filed in the database; no cut-off is given here.

Holding throughout (format): functional, organism-based
Settings in all cases: Cercopithecidae

Assay [1] concerns Monkey. The assay is described as follows: Compound was tested for activity in rhesus monkey behavioral test; Inactive.
The subject of assay [2] is Monkey. Nature of the assay: Compound was tested for activity in rhesus monkey behavioral test; Active.
Assay [3] has as its system Monkey. The assay is described as follows: Compound was tested for activity in rhesus monkey behavioral test; Minimal activity.

For the molecule `CCCCCc1cc(O)c2c(c1)OC(C)(C)C1C=C[C@H](C)CC21` (stereo partly specified), the outcome in assay [1] was inactive.
As for `CCCCCc1cc(O)c2c(c1)OC(C)(C)[C@@H]1CCC(C)=C[C@@H]21`, in assay [2], the outcome was Active.
As for `CCCCCc1cc(O)c2c(c1)OC(C)(C)C1CC[C@@H](C)CC21` (stereo partly specified), the Activity entry in assay [3] is “Minimal activity”.
For `C=C1CCC2C(C1)c1c(O)cc(CCCCC)cc1OC2(C)C` (stereo unspecified), in assay [1], the outcome was inactive.
In the case of `CCCCCc1cc(O)c2c(c1)OC(C)(C)C1CC[C@H](C)CC21` (stereo partly specified), the result in assay [2] was Active.
For the molecule `CCCCCc1cc(O)c2c(c1)OC(C)(C)[C@@H]1CC=C(C)C[C@@H]21`, the outcome in assay [2] was Active.
